# Measured values from ChEMBL document CHEMBL5705899 (Biochem J, 2014).
# Calls of active or inactive are those of the source. The rule behind the calls is not given here.
# What was measured:
# [1] = biological target: CDK6/cyclin D1 (Homo sapiens) (UniProt P24385+Q00534); assay: Inhibition of human CDK6/CycD1 at 1 uM using RBER-CHKtide as substrate in presence of 33P-ATP by ProQinase assay; assay type: protein-complex assay
# [2] = biological target: Serine/threonine-protein kinase TAO3 (Homo sapiens) (UniProt Q9H2K8); assay: Inhibition of human TAOK3 at 1 uM using 3xChocktide-PKC as substrate in presence of 33P-ATP by ProQinase assay
# [3] = biological target: Testis-specific serine/threonine-protein kinase 1 (Homo sapiens) (UniProt Q9BXA7); assay: Inhibition of human TSSK1 at 1 uM using RBER-CHKtide as substrate in presence of 33P-ATP by ProQinase assay
# [4] = biological target: MAP kinase-interacting serine/threonine-protein kinase 2 (Homo sapiens) (UniProt Q9HBH9); assay: Inhibition of human MKNK2 at 1 uM using RB-S6P as substrate in presence of 33P-ATP by ProQinase assay
# [5] = biological target: MAP kinase-interacting serine/threonine-protein kinase 2 (Homo sapiens) (UniProt Q9HBH9); assay: Inhibition of recombinant human N-terminal GST/C-terminal His6-tagged MNK2alpha (2 to 465 residues) expressed in Escherichia coli assessed as remaining activity at 1 uM using eIF4E as substrate incubated for 30 mins in presence of [gamma-33P]ATP by filter binding method relative to control
# [6] = biological target: Serine/threonine-protein kinase PAK 4 (Homo sapiens) (UniProt O96013); assay: Inhibition of human PAK4 at 1 uM using bio-4xCHKT as substrate in presence of 33P-ATP by ProQinase assay
# [7] = biological target: Calcium/calmodulin-dependent protein kinase type II subunit beta (Homo sapiens) (UniProt Q13554); assay: Inhibition of human CAMK2B at 1 uM using RBER-CHKtide as substrate in presence of 33P-ATP by ProQinase assay
# [8] = biological target: Mitogen-activated protein kinase kinase kinase 8 (Homo sapiens) (UniProt P41279); assay: Inhibition of human COT at 1 uM using RBER-CHKtide as substrate in presence of 33P-ATP by ProQinase assay
# [9] = biological target: MAP kinase-activated protein kinase 3 (Homo sapiens) (UniProt Q16644); assay: Inhibition of human MAPKAPK3 at 1 uM using bio-4xCHKT as substrate in presence of 33P-ATP by ProQinase assay
# [10] = biological target: G protein-coupled receptor kinase 3 (Homo sapiens) (UniProt P35626); assay: Inhibition of human GRK3 at 1 uM using casein as substrate in presence of 33P-ATP by ProQinase assay
# [11] = biological target: MAP kinase-activated protein kinase 2 (Homo sapiens) (UniProt P49137); assay: Inhibition of recombinant human N-terminal GST/C-terminal Myc-tagged MAPKAPK2 (46 to 400 residues) expressed in Escherichia coli assessed as remaining activity at 1 uM using KKLNRTLSVA as substrate incubated for 30 mins in presence of [gamma-33P]ATP by filter binding method relative to control
# [12] = biological target: Dual specificity mitogen-activated protein kinase kinase 2 (Homo sapiens) (UniProt P36507); assay: Inhibition of human MEK2 at 1 uM using RBER-IRStide as substrate in presence of 33P-ATP by ProQinase assay
# [13] = biological target: Casein kinase II subunit alpha (Homo sapiens) (UniProt P68400); assay: Inhibition of human CK2alpha1 at 1 uM using casein as substrate in presence of 33P-ATP by ProQinase assay
# [14] = biological target: Maternal embryonic leucine zipper kinase (Homo sapiens) (UniProt Q14680); assay: Inhibition of recombinant human N-terminal GST/C-terminal His6-tagged MELK (2 to 651 residues) expressed in Escherichia coli assessed as remaining activity at 1 uM using KKLNRTLSFAEPG as substrate incubated for 30 mins in presence of [gamma-33P]ATP by filter binding method relative to control
# [15] = biological target: Serine/threonine-protein kinase 16 (Homo sapiens) (UniProt O75716); assay: Inhibition of human TSF1 at 1 uM using casein as substrate in presence of 33P-ATP by ProQinase assay
# [16] = biological target: Serine/threonine-protein kinase 26 (Homo sapiens) (UniProt Q9P289); assay: Inhibition of recombinant human N-terminal His6-tagged MST4 (1 to 416 residues) expressed in baculovirus infected Sf21 cells assessed as remaining activity at 1 uM using MBP as substrate incubated for 30 mins in presence of [gamma-33P]ATP by filter binding method relative to control
# [17] = biological target: BDNF/NT-3 growth factors receptor (Homo sapiens) (UniProt Q16620); assay: Inhibition of human TRKB at 1 uM using polyEY as substrate in presence of 33P-ATP by ProQinase assay
# [18] = biological target: Serine/threonine-protein kinase PLK2 (Homo sapiens) (UniProt Q9NYY3); assay: Inhibition of human SNK at 1 uM using RBER-GSK3 as substrate in presence of 33P-ATP by ProQinase assay
# [19] = biological target: Calcium/calmodulin-dependent protein kinase kinase 2 (Homo sapiens) (UniProt Q96RR4); assay: Inhibition of human CAMKK2 at 1 uM using RBER-GSK3 as substrate in presence of 33P-ATP by ProQinase assay
# [20] = biological target: T1, Phosphatidylinositol 4,5-bisphosphate 3-kinase catalytic subunit gamma isoform (Homo sapiens, UniProt P48736); assay: Inhibition of human PIK3CG using PIP2/PS as substrate by ADP-Glo assay
# [21] = biological target: Dual specificity tyrosine-phosphorylation-regulated kinase 1A (Homo sapiens) (UniProt Q13627); assay: Inhibition of human DYRK1A at 1 uM using RBER-CHKtide as substrate in presence of 33P-ATP by ProQinase assay
# [22] = biological target: Serine/threonine-protein kinase Chk2 (Homo sapiens) (UniProt O96017); assay: Inhibition of recombinant human N-terminal GST/C-terminal His6-tagged CHK2 (5 to 543 residues) expressed in Escherichia coli assessed as remaining activity at 1 uM using CHKtide as substrate incubated for 30 mins in presence of [gamma-33P]ATP by filter binding method relative to control
# [23] = biological target: Serine/threonine-protein kinase VRK1 (Homo sapiens) (UniProt Q99986); assay: Inhibition of human VRK1 at 1 uM using RBER-CHKtide as substrate in presence of 33P-ATP by ProQinase assay
# [24] = biological target: T1, Phosphatidylinositol 4,5-bisphosphate 3-kinase catalytic subunit gamma isoform; assay: Inhibition of recombinant human N-terminal His6-tagged PI3Kgamma (2 to 1102 residues) expressed in baculovirus expression system at 1 uM using diC8 PIP2 as substrate incubated for 75 mins by ADP-Glo assay
# [25] = biological target: Protein kinase C alpha type (Homo sapiens) (UniProt P17252); assay: Inhibition of recombinant human N-terminal GST-tagged PKCA (2 to 351 residues) expressed in Escherichia coli assessed as remaining activity at 1 uM using kKemptide as substrate incubated for 30 mins in presence of [gamma-33P]ATP by filter binding method relative to control
# [26] = species on record: Homo sapiens; assay: Inhibition of recombinant human MKK1 (2 to 393 residues) expressed in Escherichia coli assessed as remaining activity at 1 uM using MBP as substrate incubated for 30 mins in presence of [gamma-33P]ATP by filter binding method relative to control
# Chain of MAP kinase-interacting serine/threonine-protein kinase 2 (Homo sapiens) (Q9HBH9 whole entry, looked up, the tested form may be a part): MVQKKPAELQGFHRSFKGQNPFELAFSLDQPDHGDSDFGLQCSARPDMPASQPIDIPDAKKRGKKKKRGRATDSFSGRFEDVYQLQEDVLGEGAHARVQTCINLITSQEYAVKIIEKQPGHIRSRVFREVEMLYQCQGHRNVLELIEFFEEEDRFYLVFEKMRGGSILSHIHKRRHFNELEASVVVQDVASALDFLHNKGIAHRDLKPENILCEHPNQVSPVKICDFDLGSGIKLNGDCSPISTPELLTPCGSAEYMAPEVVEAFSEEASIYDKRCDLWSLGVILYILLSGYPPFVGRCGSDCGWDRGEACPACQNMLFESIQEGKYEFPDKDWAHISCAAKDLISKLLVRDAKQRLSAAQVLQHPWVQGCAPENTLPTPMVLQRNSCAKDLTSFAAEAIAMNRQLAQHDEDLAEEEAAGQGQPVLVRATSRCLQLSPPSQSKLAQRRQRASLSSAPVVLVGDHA
# Chain of Serine/threonine-protein kinase PAK 4 (Homo sapiens) (O96013 whole entry, looked up): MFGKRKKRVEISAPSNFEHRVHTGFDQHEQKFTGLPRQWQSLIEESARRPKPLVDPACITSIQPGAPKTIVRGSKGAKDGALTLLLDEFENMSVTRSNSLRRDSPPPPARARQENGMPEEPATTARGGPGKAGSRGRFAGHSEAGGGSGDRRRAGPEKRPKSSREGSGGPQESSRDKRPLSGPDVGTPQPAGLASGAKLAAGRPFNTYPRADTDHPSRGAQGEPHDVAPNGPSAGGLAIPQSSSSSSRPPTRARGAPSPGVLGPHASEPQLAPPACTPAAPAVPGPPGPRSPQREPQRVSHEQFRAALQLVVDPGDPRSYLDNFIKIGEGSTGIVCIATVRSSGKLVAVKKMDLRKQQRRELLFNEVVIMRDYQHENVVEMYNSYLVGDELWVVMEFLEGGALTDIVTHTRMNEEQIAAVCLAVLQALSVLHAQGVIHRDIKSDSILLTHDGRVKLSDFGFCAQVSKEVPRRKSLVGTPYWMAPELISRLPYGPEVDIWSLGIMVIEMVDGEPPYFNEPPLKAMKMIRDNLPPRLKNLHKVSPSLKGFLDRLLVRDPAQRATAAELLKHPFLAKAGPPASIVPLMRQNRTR
# Chain of Serine/threonine-protein kinase 26 (Homo sapiens) (Q9P289 2-416 limits assumed): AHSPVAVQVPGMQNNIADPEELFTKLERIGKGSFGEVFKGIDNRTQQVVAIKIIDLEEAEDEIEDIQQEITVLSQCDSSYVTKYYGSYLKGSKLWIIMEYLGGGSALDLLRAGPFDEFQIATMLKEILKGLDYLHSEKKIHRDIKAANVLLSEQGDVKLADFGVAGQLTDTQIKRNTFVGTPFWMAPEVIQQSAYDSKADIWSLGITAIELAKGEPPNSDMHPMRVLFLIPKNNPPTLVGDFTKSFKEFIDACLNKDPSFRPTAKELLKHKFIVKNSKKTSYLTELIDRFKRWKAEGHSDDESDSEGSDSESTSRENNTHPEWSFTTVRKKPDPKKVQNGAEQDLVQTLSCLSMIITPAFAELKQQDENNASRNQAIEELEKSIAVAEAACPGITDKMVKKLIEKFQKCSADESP
# Chain of Serine/threonine-protein kinase VRK1 (Homo sapiens) (Q99986 whole entry, the tested form may be a part, canonical isoform): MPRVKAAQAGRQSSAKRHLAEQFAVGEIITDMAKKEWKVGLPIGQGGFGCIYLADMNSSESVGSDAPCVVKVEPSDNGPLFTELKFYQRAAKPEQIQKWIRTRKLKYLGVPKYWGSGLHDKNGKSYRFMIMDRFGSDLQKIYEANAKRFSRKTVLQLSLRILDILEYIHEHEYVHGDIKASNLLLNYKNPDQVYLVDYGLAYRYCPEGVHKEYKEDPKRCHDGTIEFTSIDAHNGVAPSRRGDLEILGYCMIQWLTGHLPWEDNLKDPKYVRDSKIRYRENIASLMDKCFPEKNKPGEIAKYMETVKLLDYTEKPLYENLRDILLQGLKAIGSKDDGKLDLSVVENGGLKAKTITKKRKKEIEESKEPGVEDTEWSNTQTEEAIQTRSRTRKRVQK
# Chain of Casein kinase II subunit alpha (Homo sapiens) (P68400 whole entry, looked up, the tested form may be a part): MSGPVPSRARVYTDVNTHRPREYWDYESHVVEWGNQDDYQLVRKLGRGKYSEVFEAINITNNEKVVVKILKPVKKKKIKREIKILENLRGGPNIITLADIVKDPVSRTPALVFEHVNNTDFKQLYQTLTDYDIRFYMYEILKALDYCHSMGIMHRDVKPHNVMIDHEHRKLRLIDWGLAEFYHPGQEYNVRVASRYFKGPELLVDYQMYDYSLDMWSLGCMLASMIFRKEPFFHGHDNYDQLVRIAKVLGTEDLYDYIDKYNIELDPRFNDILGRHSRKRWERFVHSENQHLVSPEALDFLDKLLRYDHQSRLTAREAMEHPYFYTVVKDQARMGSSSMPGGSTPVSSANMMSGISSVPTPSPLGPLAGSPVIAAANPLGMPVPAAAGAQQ
# Chain of Mitogen-activated protein kinase kinase kinase 8 (Homo sapiens) (P41279 whole entry): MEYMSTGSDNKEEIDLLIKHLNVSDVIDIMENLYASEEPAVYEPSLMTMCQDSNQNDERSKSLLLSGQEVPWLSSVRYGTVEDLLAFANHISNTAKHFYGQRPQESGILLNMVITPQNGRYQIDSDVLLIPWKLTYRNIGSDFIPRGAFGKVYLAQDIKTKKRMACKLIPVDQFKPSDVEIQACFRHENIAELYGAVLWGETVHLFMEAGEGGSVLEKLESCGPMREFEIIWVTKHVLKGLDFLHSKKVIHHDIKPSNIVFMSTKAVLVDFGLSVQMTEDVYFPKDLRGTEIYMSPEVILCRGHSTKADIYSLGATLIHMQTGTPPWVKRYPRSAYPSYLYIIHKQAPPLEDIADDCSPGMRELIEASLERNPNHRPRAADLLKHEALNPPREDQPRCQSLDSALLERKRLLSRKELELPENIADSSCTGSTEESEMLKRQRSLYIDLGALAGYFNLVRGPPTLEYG
# Chain of Calcium/calmodulin-dependent protein kinase type II subunit beta (Homo sapiens) (Q13554 whole entry): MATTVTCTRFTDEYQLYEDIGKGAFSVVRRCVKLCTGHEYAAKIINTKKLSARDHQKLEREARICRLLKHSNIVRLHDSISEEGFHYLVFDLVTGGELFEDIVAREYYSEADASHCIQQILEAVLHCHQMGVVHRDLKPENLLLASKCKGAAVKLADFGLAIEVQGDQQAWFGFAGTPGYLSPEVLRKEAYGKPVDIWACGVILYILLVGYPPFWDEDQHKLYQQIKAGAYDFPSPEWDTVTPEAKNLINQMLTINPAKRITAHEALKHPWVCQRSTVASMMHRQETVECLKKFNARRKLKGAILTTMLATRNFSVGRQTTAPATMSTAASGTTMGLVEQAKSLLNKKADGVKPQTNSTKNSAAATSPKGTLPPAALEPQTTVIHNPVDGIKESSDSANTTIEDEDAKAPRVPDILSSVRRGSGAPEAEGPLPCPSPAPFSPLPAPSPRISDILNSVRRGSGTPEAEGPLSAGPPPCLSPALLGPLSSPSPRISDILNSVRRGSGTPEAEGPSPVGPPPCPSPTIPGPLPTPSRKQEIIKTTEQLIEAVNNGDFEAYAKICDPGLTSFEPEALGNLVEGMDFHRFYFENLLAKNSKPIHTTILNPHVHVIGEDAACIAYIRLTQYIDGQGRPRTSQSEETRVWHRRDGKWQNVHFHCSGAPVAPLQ
# Chain of Serine/threonine-protein kinase TAO3 (Homo sapiens) (Q9H2K8 whole entry): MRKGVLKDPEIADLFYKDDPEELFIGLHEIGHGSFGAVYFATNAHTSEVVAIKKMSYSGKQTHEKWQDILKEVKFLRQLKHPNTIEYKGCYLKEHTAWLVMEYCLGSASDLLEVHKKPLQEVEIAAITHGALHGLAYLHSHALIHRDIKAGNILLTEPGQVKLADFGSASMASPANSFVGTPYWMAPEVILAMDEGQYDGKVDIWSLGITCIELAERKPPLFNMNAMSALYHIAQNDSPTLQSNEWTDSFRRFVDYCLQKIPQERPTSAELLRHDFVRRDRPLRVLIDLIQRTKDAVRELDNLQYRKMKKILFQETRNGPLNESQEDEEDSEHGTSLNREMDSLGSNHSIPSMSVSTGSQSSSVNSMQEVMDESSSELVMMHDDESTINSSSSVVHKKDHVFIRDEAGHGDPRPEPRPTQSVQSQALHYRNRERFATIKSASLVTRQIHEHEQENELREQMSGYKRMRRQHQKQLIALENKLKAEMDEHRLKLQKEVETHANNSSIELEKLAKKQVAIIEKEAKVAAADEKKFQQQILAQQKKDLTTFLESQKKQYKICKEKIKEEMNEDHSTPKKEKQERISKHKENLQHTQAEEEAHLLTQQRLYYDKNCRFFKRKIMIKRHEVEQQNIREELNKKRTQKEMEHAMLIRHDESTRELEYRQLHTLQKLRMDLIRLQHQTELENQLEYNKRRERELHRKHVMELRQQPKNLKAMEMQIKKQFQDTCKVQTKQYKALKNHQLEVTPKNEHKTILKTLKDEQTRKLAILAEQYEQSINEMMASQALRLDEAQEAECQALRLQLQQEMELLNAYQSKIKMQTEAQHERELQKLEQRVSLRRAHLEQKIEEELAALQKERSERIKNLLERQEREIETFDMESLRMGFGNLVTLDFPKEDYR
# Chain of Calcium/calmodulin-dependent protein kinase kinase 2 (Homo sapiens) (Q96RR4 2-588 limits assumed): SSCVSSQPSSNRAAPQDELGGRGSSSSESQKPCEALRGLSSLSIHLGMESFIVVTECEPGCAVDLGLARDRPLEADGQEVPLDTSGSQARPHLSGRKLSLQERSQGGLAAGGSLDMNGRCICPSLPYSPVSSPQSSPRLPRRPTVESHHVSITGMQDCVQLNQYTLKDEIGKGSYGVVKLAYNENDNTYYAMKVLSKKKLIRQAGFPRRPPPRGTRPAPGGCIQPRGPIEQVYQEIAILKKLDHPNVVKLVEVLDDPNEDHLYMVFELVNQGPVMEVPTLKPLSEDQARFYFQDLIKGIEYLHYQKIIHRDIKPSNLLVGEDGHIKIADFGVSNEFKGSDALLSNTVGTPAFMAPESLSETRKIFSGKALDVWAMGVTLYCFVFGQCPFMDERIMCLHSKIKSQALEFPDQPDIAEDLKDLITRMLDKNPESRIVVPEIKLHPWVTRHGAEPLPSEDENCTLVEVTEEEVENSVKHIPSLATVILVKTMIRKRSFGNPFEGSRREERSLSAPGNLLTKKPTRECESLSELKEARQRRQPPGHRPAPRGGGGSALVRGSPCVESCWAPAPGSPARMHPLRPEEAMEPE
compound,measurement,setting,value
CC(C)(O)CNc1ncc(-c2ccnc(Nc3ccnc(Cl)c3)n2)c(CC2CC2)n1,inhibition,[1],inactive
same,inhibition,[2],inactive
same,inhibition,[3],inactive
same,inhibition,[4],inactive
same,Activity,[5],100%
same,inhibition,[6],inactive
same,inhibition,[7],inactive
same,inhibition,[8],inactive
same,inhibition,[9],inactive
same,inhibition,[10],inactive
same,Activity,[11],110%
same,inhibition,[12],inactive
same,inhibition,[13],inactive
same,Activity,[14],108%
same,inhibition,[15],inactive
same,Activity,[16],108%
same,inhibition,[17],inactive
same,inhibition,[18],inactive
same,inhibition,[19],inactive
same,IC50,[20],> 10 µM
same,inhibition,[21],inactive
same,Activity,[22],103%
same,inhibition,[23],inactive
same,inhibition,[24],inactive
same,Activity,[25],112%
same,Activity,[26],122%
